Twelve molecules from ChEMBL document CHEMBL1201862, “PubChem BioAssay data set” (2004) can be followed below.

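Step 1: Grow cells in 96-well plates. Step 2: Expose to compound for 48 hours at 5 concentrations. Step 3: Interpolate endpoints linearly; if unreached, use highest concentration. Abbreviation: GI50, concentration required for 50% inhibition of growth.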 Calls of active or inactive are those of the source. Rule as the data show it: active = GI50 up to about 1.1 µM and inactive = higher. A value given as a limit tells only on which side of the number the result lay.

Among the test systems are HCT-116; MDA-N; SNB-75; PC-3; SK-MEL-28; SW-620; HCT-15; MCF7; T47D; TK-10; UO-31; UACC-257; SN12C; ACHN; SK-MEL-2; HL-60; UACC-62; U-251; HOP-92.
Test in all cases: NCI anticancer screen, dose series, 48 h

For the molecule `CCC1(CC)C(=O)N(C(=O)c2cc(OC)c(OC)c(OC)c2)N(C(=O)c2cc(OC)c(OC)c(OC)c2)C1=O`, the GI50 in the experiment with HCT-116 is > 50 µM (inactive); in the experiment with MDA-N, > 50 µM (inactive); in the experiment with SNB-75, 42.9 µM (inactive); in the experiment with PC-3, > 50 µM (inactive); with SK-MEL-28 it was > 50 µM (inactive); in the experiment with SW-620, > 50 µM (inactive). In addition, the GI50 in the experiment with HCT-15 was greater than 50 µM; in the experiment on MCF7, > 50 µM (inactive); in the experiment on T47D, > 50 µM (inactive); in the experiment with TK-10 it was > 50 µM (inactive); with UO-31, > 50 µM (inactive); in the experiment on UACC-257, > 50 µM (inactive). In addition, the GI50 is 21.8 µM (inactive) in the experiment with SN12C; > 50 µM (inactive) with ACHN; > 50 µM (inactive) in the experiment on SK-MEL-2; 28.5 µM (inactive) in the experiment on HL-60; > 50 µM (inactive) with UACC-62; > 50 µM (inactive) with U-251.
Take `Cc1nn(C(=O)Cc2ccccc2)c2c1C(c1ccc(/C=C/c3ccccc3)cc1)SC(=N)N2` (stereo unspecified): the GI50 in the experiment with HCT-116, in the experiment on MDA-N, in the experiment with SNB-75, with PC-3, with SK-MEL-28 and with SW-620 was > 100 µM (inactive) each time. Besides, the GI50 was greater than 100 µM in the experiment on HCT-15; > 100 µM (inactive) with MCF7; > 100 µM (inactive) with T47D; > 100 µM (inactive) in the experiment with TK-10; > 100 µM (inactive) in the experiment with UO-31; > 100 µM (inactive) in the experiment with UACC-257. The GI50 in the experiment on SN12C, with ACHN, in the experiment on HL-60 and in the experiment with UACC-62 was > 100 µM (inactive) throughout.
As for `C#CCOCn1ccc(=O)[nH]c1=O`, the GI50 in the experiment with HCT-116, in the experiment with MDA-N, in the experiment on SNB-75, in the experiment on PC-3, in the experiment on SK-MEL-28 and with SW-620 was > 100 µM (inactive) in each case. The GI50 with HCT-15 is greater than 100 µM; with MCF7, > 100 µM (inactive); in the experiment with T47D it was > 100 µM (inactive); with TK-10 it was > 100 µM (inactive); in the experiment with UO-31, > 100 µM (inactive); in the experiment with UACC-257, > 100 µM (inactive). Besides, the GI50 in the experiment with SN12C, with ACHN, in the experiment with SK-MEL-2, in the experiment with HL-60, in the experiment with UACC-62 and in the experiment on U-251 was > 100 µM (inactive) in each case.
On to `COc1cccc(-c2cc(O)c3c(C)ccnc3n2)c1`, for which the GI50 with HCT-116 was 0.0392 µM (active); in the experiment with MDA-N, < 0.01 µM (active); with SNB-75, 0.0143 µM (active); with PC-3, 0.0223 µM (active); in the experiment with SW-620, < 0.0177 µM (active); in the experiment on HCT-15 it was 0.0486 µM. Besides, the GI50 with MCF7 is 0.0741 µM (active); in the experiment with T47D it was 49 µM (inactive); in the experiment with TK-10, > 100 µM (inactive); in the experiment with UO-31, 0.0703 µM (active); in the experiment on SN12C, 0.0655 µM (active); in the experiment with ACHN, 0.0483 µM (active). For the same molecule, the GI50 in the experiment with SK-MEL-2 is 0.0695 µM (active); in the experiment with HL-60, < 0.0114 µM (active); in the experiment with UACC-62 it was 0.0267 µM (active); with U-251, 0.036 µM (active).
Turning to `CCC1(COC(NC(=O)c2ccccc2)(C(F)(F)F)C(F)(F)F)COC1`, the GI50 in the experiment with HCT-116, with MDA-N, in the experiment with SNB-75, with PC-3, in the experiment with SK-MEL-28 and with SW-620 was > 100 µM (inactive) each time. Besides, the GI50 was greater than 100 µM with HCT-15; > 100 µM (inactive) in the experiment on T47D; > 100 µM (inactive) in the experiment on TK-10; > 100 µM (inactive) with UO-31; > 100 µM (inactive) with UACC-257; > 100 µM (inactive) in the experiment on SN12C. Moreover, the GI50 is 65.6 µM (inactive) with ACHN, > 100 µM (inactive) in the experiment on SK-MEL-2, > 100 µM (inactive) in the experiment with HL-60 and > 100 µM (inactive) with U-251.
Take `COCOc1ccc(C(=O)C(C)c2ccc(OCOC)cc2OCOC)c(O)c1` (stereo unspecified): the GI50 with HCT-116 was > 100 µM (inactive); in the experiment on MDA-N it was 52.8 µM (inactive); in the experiment on SNB-75, 33.5 µM (inactive); with PC-3 it was 48.9 µM (inactive); in the experiment with SK-MEL-28, > 100 µM (inactive); in the experiment on SW-620, > 100 µM (inactive). Moreover, the GI50 with HCT-15 was 78.9 µM; in the experiment with MCF7, 68.2 µM (inactive); with TK-10, > 100 µM (inactive); in the experiment on UO-31, 33.2 µM (inactive); with UACC-257 it was 56.4 µM (inactive); in the experiment on HOP-92, 48.1 µM (inactive). Further, the GI50 with SN12C was > 100 µM (inactive); with ACHN, > 100 µM (inactive); with HL-60, 30.9 µM (inactive); in the experiment on UACC-62, > 100 µM (inactive); in the experiment with U-251, > 100 µM (inactive).
With `Cc1cc(S(=O)(=O)O)ccc1/N=N/c1c(O)ccc2ccccc12`, the GI50 with HCT-116, in the experiment with MDA-N, in the experiment with SNB-75, with PC-3, in the experiment on SK-MEL-28 and in the experiment with SW-620 was > 100 µM (inactive) throughout. Also, the GI50 was greater than 100 µM in the experiment on HCT-15; > 100 µM (inactive) in the experiment with T47D; > 100 µM (inactive) in the experiment with TK-10; > 100 µM (inactive) in the experiment on UO-31; > 100 µM (inactive) in the experiment on UACC-257; > 100 µM (inactive) in the experiment on HOP-92. For the same molecule, the GI50 in the experiment with SN12C, in the experiment on ACHN, in the experiment on SK-MEL-2, in the experiment with HL-60, with UACC-62 and in the experiment on U-251 was > 100 µM (inactive) throughout.
Consider `Cc1nnc2sc(NN)nn12`, for which the GI50 is > 100 µM (inactive) in the experiment with HCT-116; 43.5 µM (inactive) in the experiment on MDA-N; > 100 µM (inactive) in the experiment with SNB-75; > 100 µM (inactive) with PC-3; > 100 µM (inactive) in the experiment on SK-MEL-28; > 100 µM (inactive) in the experiment with SW-620. Moreover, the GI50 is greater than 100 µM in the experiment with HCT-15; > 100 µM (inactive) in the experiment on MCF7; > 100 µM (inactive) in the experiment with T47D; > 100 µM (inactive) in the experiment on TK-10; > 100 µM (inactive) in the experiment with UO-31; > 100 µM (inactive) in the experiment on UACC-257. Besides, the GI50 is > 100 µM (inactive) with SN12C; > 100 µM (inactive) in the experiment with ACHN; > 100 µM (inactive) in the experiment with SK-MEL-2; 77.4 µM (inactive) in the experiment on UACC-62; > 100 µM (inactive) with U-251.
`O=c1[nH][nH]c(=O)n1Cc1ccccc1`: the GI50 in the experiment on HCT-116, with MDA-N, in the experiment on SNB-75, with PC-3, in the experiment with SK-MEL-28 and with SW-620 was > 100 µM (inactive) throughout. The GI50 in the experiment on HCT-15 was greater than 100 µM; in the experiment on MCF7 it was > 100 µM (inactive); in the experiment on T47D, > 100 µM (inactive); in the experiment on TK-10, > 100 µM (inactive); with UO-31, > 100 µM (inactive); in the experiment with UACC-257 it was > 100 µM (inactive). For the same molecule, the GI50 with SN12C, in the experiment on SK-MEL-2, with HL-60, with UACC-62 and with U-251 was > 100 µM (inactive) each time.
Consider `CCOP(=O)(/C=C\n1cnc2c(=O)n(C(C)=O)c(N)nc21)OCC`, for which the GI50 was > 100 µM (inactive) in the experiment on HCT-116; > 100 µM (inactive) with MDA-N; > 100 µM (inactive) in the experiment on SNB-75; 22.5 µM (inactive) in the experiment on PC-3; > 100 µM (inactive) with SK-MEL-28; > 100 µM (inactive) in the experiment on SW-620. The GI50 with HCT-15 is greater than 100 µM; in the experiment with MCF7, > 100 µM (inactive); with T47D it was > 100 µM (inactive); in the experiment on TK-10 it was > 100 µM (inactive); in the experiment with UACC-257 it was > 100 µM (inactive); in the experiment on SN12C, > 100 µM (inactive). The GI50 in the experiment on ACHN, in the experiment with HL-60, in the experiment on UACC-62 and in the experiment with U-251 was > 100 µM (inactive) throughout.
On to `c1ccc(-c2cc(-c3cc(-c4ccccc4)[nH]n3)[nH]n2)cc1`, for which the GI50 with HCT-116 is > 100 µM (inactive); in the experiment with MDA-N, > 100 µM (inactive); in the experiment on SNB-75, > 100 µM (inactive); with PC-3, > 100 µM (inactive); with HCT-15, greater than 100 µM; with MCF7, > 100 µM (inactive). In addition, the GI50 in the experiment with T47D, in the experiment on TK-10, in the experiment on UO-31, with UACC-257, with SN12C and in the experiment on ACHN was > 100 µM (inactive) throughout. The GI50 with SK-MEL-2, with UACC-62 and in the experiment with U-251 was > 100 µM (inactive) each time.
As for `N=C(N)C1CN(CCc2c[nH]cn2)C(=O)NC1=O` (stereo unspecified), the GI50 in the experiment with HCT-116, with MDA-N, in the experiment on SNB-75, in the experiment on PC-3, in the experiment on SK-MEL-28 and in the experiment on SW-620 was > 100 µM (inactive) in each case. In addition, the GI50 with HCT-15 is greater than 100 µM; in the experiment on MCF7, > 100 µM (inactive); in the experiment with TK-10 it was > 100 µM (inactive); in the experiment on UO-31, > 100 µM (inactive); in the experiment on UACC-257 it was > 100 µM (inactive); with HOP-92, > 100 µM (inactive). For the same molecule, the GI50 in the experiment on SN12C, in the experiment with ACHN, with HL-60, in the experiment with UACC-62 and with U-251 was > 100 µM (inactive) in each case.
